Here are results for four substances from patent US10844101B2, “Plant-derived elastin binding protein ligands and methods of using the same” (ELASTOGENESIS, LLC, priority 2005, dated 2020).

For one test, the system named is dermal fibroblasts. Nature of the test: Cellular proliferation by [3H]-thymidine incorporation. In kind it is cell-based, human. The note with it: dermal fibroblasts vs control. An excerpt: Results of this calculation, showing a more profound effect of EBPL-2 on net deposition of insoluble elastin per culture, led to the hypothesis that EBPL-2, similarly to VGVAPG (SEQ ID NO. 1), also stimulates cellular proliferation.

In another test the test system is human dermal fibroblasts. The experiment in a line: Immunostaining with anti-tropoelastin antibody and morphometric analysis of elastic fiber deposition in 7-day dermal fibroblast cultures. In kind it is cell-based. The note with it: for elastogenesis level compared with VGVAPG or EBPL-1 treated cultures: 7 day-old primary cultures of dermal fibroblasts; for extracellular elastic fibers deposited (anti-tropoelastin immunostaining) / levels of intra- and extracellular tropoelastin (immunocytochemical staining): 7 days; for extracellular elastic fibers deposited (anti-tropoelastin immunostaining): fibroblasts, VGVAPG 5 μg/mL, EBPL-2 5 μg/mL, EBPL-3 10 μg/mL; for more elastic fibers / tropoelastin than control cultures, maximally produced (quantitative morphometric analysis of immuno-detectable tropoelastin): maximum effect vs control. The method, then:
In all experiments except those using CDBR, consecutive passages 3-7 were tested. Cells were incubated in the presence and absence of VGVAPG (SEQ ID NO. 1) (5 μg/mL), EBPL-2 (5 μg/mL) and EBPL-3 (10 μg/mL). In experiments using CDRB cell passage 3 was tested, cells were densely plated (50×10^6 cells/dish) to rich immediate confluency and than cultured for 7 days in the presence and absence of 25 μg/ml CDBR (added at day 1 and 3).

Test [1] has as its system human fibroblasts derived from normal human skin. The experiment in a line: [3H]-valine metabolic labeling and assay of newly deposited NaOH-insoluble elastin in fibroblast cultures. Type of test: cell-based. The note with it: [3H]-valine labeling 3 days; for net deposition of insoluble elastin, maximum over control values: expressed per culture dish, dose dependent. The protocol: Fibroblasts were densely plated (50×10^5/dish) and grown to confluency in 10 cm cell culture dishes in quadruplicate. 20 μCi of [^3H]-valine was added to each dish along with fresh media. Cultures were then incubated for 72 hours and insoluble elastin was assessed separately in each culture.

The test system of test [2] is elastin gene in adult dermal fibroblasts. The experiment in a line: RT-PCR with specific tropoelastin probe (transcription of the elastin gene). Type of test: cell-based, human. To be noted: serum-free medium and 10% FBS. An excerpt:
Using a BLAST search through the National Library of Medicine website, we identified the IGVAPG (SEQ ID NO. 13) domain in the amino acid sequence for a transcription factor of Japanese rice, which also reflects the common EBP-binding GXXPG (SEQ ID NO. 2) motif found in elastin and laminin. We used RT-PCR to measure transcription of the elastin gene by peptides of the invention.

Another test concerns human skin explants. Nature of the test: Organ cultures of human skin explants stained with Movat pentachrome stain. In kind it is cell-based.
Setting [3] is: adult dermal fibroblasts, 7 day old cultures.
[4] abbreviates: organ cultures of human skin biopsies.

“Also recorded” adds a separate entry of the source.

For “IGVAPG (Synthetic derived from Oryza sativa) [EBPL-2]”, the “incorporation of [3H]-thymidine (cellular proliferation)” value with dermal fibroblasts was “higher than control incorporation of [^3H]-thymidine”. In addition, in the test with human dermal fibroblasts, the “elastogenesis level compared with VGVAPG or EBPL-1 treated cultures” value is “capable of inducing elastogenesis to the levels that exceed those obtained in cultures treated with VGVAPG; also recorded: higher net deposition of tropoelastin than their counterparts cultured with VGVAPG” and the “extracellular elastic fibers deposited (anti-tropoelastin immunostaining)” value (“extracellular elastic fibers deposited” for short) is reported as “deposition of thick extracellular elastic fibers”. Moreover, the “more elastic fibers / tropoelastin than control cultures, maximally produced (quantitative morphometric analysis of immuno-detectable tropoelastin)” value with human dermal fibroblasts (setting [3]) is 710%. In addition, the “more tropoelastin than maximum ProK-60-induced levels” value in the test on human dermal fibroblasts (adult dermal fibroblasts, 7 day old cultures, maximum vs maximum ProK-60) worked out at 141%. In the test on human dermal fibroblasts (adult dermal fibroblasts), the “levels of intra- and extracellular tropoelastin (immunocytochemical staining)” value was “enhanced levels of intra- and extracellular tropoelastin”. Further, the “more radioactively labeled insoluble elastin as compared to non-treated fibroblasts” value in test [1] (10 μg/mL, normalized per DNA content) turned out to be 36%. Also, in test [1], the “net deposition of insoluble elastin, maximum over control values” turned out to be 175%. Moreover, the “transcription of the elastin gene” value in test [2] is “increased transcription of the elastin gene”. For the same substance, the “elastic fibers (black stain) in skin explant organ cultures” value with human skin explants (10-day old organ cultures, person) is “contained more elastic fibers”. In addition, in the test with human skin explants (setting [4]), the “dilatation of existing dermal capillaries” value is reported as “stimulates dilatation of existing capillaries” and the “production of new elastic fibers by pericytes” value is reported as “stimulated production of new elastic fibers by pericytes”.
Take “IGVAPGAAAAAIGVAPG (Synthetic derived from Oryza sativa) [EBPL-3]”: in the test on human dermal fibroblasts, the “elastogenesis level compared with VGVAPG or EBPL-1 treated cultures” value is recorded as “capable of inducing elastogenesis to the levels that exceed those obtained in cultures treated with VGVAPG” and the “extracellular elastic fibers deposited” value is recorded as “deposition of thick extracellular elastic fibers”.
Take “VGVAPG (Synthetic derived from Oryza sativa) [elastin receptor ligand hexapeptide obtained from Sigma, reference compound]”: the “incorporation of [3H]-thymidine (cellular proliferation)” value with dermal fibroblasts was “higher than control incorporation of [^3H]-thymidine”. Moreover, the “extracellular elastic fibers deposited” value in the test with human dermal fibroblasts was “very thin extracellular elastic fibers at levels greater than the control levels”. The “more elastic fibers / tropoelastin than control cultures, maximally produced (quantitative morphometric analysis of immuno-detectable tropoelastin)” value in the test on human dermal fibroblasts (setting [3]) came out at 457%. Besides, the “levels of intra- and extracellular tropoelastin (immunocytochemical staining)” value with human dermal fibroblasts (adult dermal fibroblasts) was “enhanced levels of intra- and extracellular tropoelastin”. Also, the “net deposition of insoluble elastin, maximum over control values” in test [1] came to 109%. In test [2], the “transcription of the elastin gene” value was “stimulated transcription”.
Consider “VGVAPGAAAAAVGVAPG (Synthetic derived from Oryza sativa) [EBPL-1]”, for which the “extracellular elastic fibers deposited” value in the test with human dermal fibroblasts is on record as “very thin extracellular elastic fibers at levels greater than the control levels”.
